The values below are quoted from earlier work in US10874753B2, “Radiopharmaceutical conjugate of a metabolite and an EPR agent, for targeting tumour cells” (The South African Nuclear Energy Corporation Limited, priority 2014, dated 2020).

For data set [1] the following is noted: binding of Ga by N4O2 chelator.
In data set [2] the target is folate receptors (FR). Conditions: binding to surface folate receptors (FR).

Regarding `O=C(O)c1cccc(CNCCNCc2cccc(C(=O)O)n2)n1` [Cyclam H2dedpa, (1,2-bis{[[6-(carboxy)pyridine-2-yl]methyl]-amino}-ethane)], the stability constant in data set [1] is listed as 28.1.
Turning to `Nc1nc(=O)c2nc(CNc3ccc(C(=O)N[C@@H](CCC(=O)O)C(=O)O)cc3)cnc2[nH]1` [Folate], the Kd in data set [2] is roughly 1 nM.
